In patent publication US20120016011A1, “RNA Interference Mediated Inhibition of Connective Tissue Growth Factor (CTGF) Gene Expression Using Short Interfering Nucleic Acid (siNA)” (Merck Sharp & Dohme Corp., priority 2009, published 2012):
[invAb] = inverted abasic unit; m = 2'-O-methyl; r = 2'-OH (RNA); f = 2'-fluoro

Test system: α-SMA mRNA
Experiment: Inhibition of α-SMA mRNA induction by TGF-β1 in HLF cells
Format: cell-based, human
Details: for Inhibition of upregulation of α-SMA mRNA by TGF-β1: 10 nM siNA, FIG. 12
Experimental: A549 cells (ECACC, 86012804) were maintained in Dulbecco's Modified Eagle Medium (DMEM) containing 10% Fetal Calf Serum (FCS), 2 mM L-glutamine, 100 U/ml penicillin and 100 μg/ml streptomycin (all from GIBCO). Sub-confluent cultures (2.7×10^3 cells/cm^2) were seeded in collagen-coated multi-well plates (Becton Dickenson) and grown for three days. Cells were quiesced using the same medium containing 0.5% FCS, for 24 hours prior to stimulation with cytokines. Cells were incubated with 0-10 ng/ml TGF-(31 for the periods indicated. Normal Human Lung Fibroblasts (HLFs) were obtained from Lonza and maintained in Fibroblast Growth Medium supplemented with growth factors (Lonza #CC-3132); final serum concentration of medium was 2%. HLFs were treated with cytokines in serum-free medium. Normal Human Bronchial Epithelial cells (NHBEs, also obtained from Lonza) were maintained and transfected in Lonza BEBM with SingleQuots (Lonza #CC-3170). All growth factors from the kit were added, except retinoic acid. All cultures were maintained at 37° C. in a humidified incubator with 5% CO2 atmosphere.
Cells were harvested at time points appropriate for the experiment. Supernatants were removed and stored at −70° C. until analysis. Cells were washed using Dulbecco's Phosphate Buffered Saline (DPBS, GIBCO), prior to lysis. RNA lysates for Taqman analysis were produced using Promega RNA lysis buffer. All lysates were stored at −70° C. until use.
Cells were seeded on 96-well tissue culture plates (A549s and NHBEs, collagen-coated plates at densities of 5×10^3 and 1.2×10^4 respectively; HLFs on flat-bottom tissue culture plates, at 1×10^4 cells per well) in 100 μl of growth medium. […] Knockdown is calculated compared to CTGF expression of cells transfected with the universal control siNA.
RNA was isolated using a Biomek 2000 robot and Promega SV 96 Total RNA Isolation kits. cDNA was synthesised using a High Capacity cDNA Reverse Transcription Kit (Applied Biosciences) on a 96-well thermal cycler. […] Plates were analysed using an ABI Taqman RT-PCR machine, and SDS 2.2 Automation Controller software. […]

Substance: 48042-DC: siNA duplex; sense SEQ ID NO: 49 B GAcAuuAAcucAuuAGAcu TTB; antisense SEQ ID NO: 50 AGUcuAAuGAGuuAAuGucUU (sense GACAUUAACUCAUUAGACUTT; antisense AGUCUAAUGAGUUAAUGUCUU; sense: DNA at AGT, 2'-fluoro at CU, [invAb] at 5' end, 3' end, backbone not given here; antisense: sugars from the 5' end rrrffmmfmmmffmmfmffmm, backbone not given here)
- Inhibition of upregulation of α-SMA mRNA by TGF-β1: significantly inhibited the upregulation of α-SMA
- α-SMA expression levels relative to untreated cells (5 and 10 ng/ml TGF-β1): comparable to untreated cells

Substance: 48048-DC: siNA duplex; sense SEQ ID NO: 61 B GAuAGcAucuuAuAcGAGu TTB; antisense SEQ ID NO: 62 ACUcGuAuAAGAuGcuAucUU (sense GAUAGCAUCUUAUACGAGUTT; antisense ACUCGUAUAAGAUGCUAUCUU; sense: DNA at AGT, 2'-fluoro at CU, [invAb] at 5' end, 3' end, backbone not given here; antisense: sugars from the 5' end rrrfmfmfmmmmfmffmffmm, backbone not given here)
- Inhibition of upregulation of α-SMA mRNA by TGF-β1: consistent but not significant knockdown of α-SMA
